This is an account of results in ChEMBL document CHEMBL1201862, “PubChem BioAssay data set” (2004).

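Each compound was tested at five concentrations against cells in 96-well plates for 48 hours. GI50 is the concentration that inhibits growth by half.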 Calls of active or inactive are those of the source. No stated cut-off is given here; in the data, active = GI50 up to about 1.1 µM and inactive = higher.

Test systems include CAKI-1; DU-145; EKVX; HOP-62; HOP-92; LOX IMVI; M14; MDA-MB-435; Malme-3M; NCI-H522; NCI/ADR-RES; OVCAR-3; OVCAR-5; SF-539; SNB-19; SNB-75; SW-620; U-251; UACC-257; UACC-62.
Common to all, as to assay: growth of human tumour cells (NCI), 48 h

As for `N#Cc1cc(-c2nc3c(F)cccc3s2)ccc1N`, the GI50 with CAKI-1 is 46 µM (inactive); in the assay on DU-145, > 100 µM (inactive); with EKVX, < 0.01 µM (active); with HOP-62 it was > 100 µM (inactive); with HOP-92 it was 3.52 µM (inactive); with LOX IMVI, > 100 µM (inactive). Also, the GI50 was > 100 µM (inactive) in the assay on M14; 45.5 µM (inactive) in the assay with MDA-MB-435; 88.9 µM (inactive) in the assay on Malme-3M; > 100 µM (inactive) in the assay on NCI-H522; > 100 µM (inactive) in the assay on NCI/ADR-RES; 96.4 µM (inactive) with OVCAR-3. For the same molecule, the GI50 in the assay on OVCAR-5, in the assay on SF-539, with SNB-19, in the assay on SNB-75, in the assay with SW-620 and with U-251 was > 100 µM (inactive) throughout. The GI50 in the assay with UACC-257 and in the assay with UACC-62 was > 100 µM (inactive) in each case.
As to `NC(CCC(=O)O)C(=O)N1CCN(c2nc(N3CCCC3)c3nc(Cl)c(NCc4ccccc4)nc3n2)CC1` (stereo not given), the GI50 with CAKI-1 was 17.8 µM (inactive); in the assay with DU-145, 8.43 µM (inactive); in the assay on EKVX, 13.8 µM (inactive); in the assay on HOP-62, 13.2 µM (inactive); in the assay on HOP-92, 15.8 µM (inactive); with LOX IMVI, 14.6 µM (inactive). Further, the GI50 in the assay on M14 is 10 µM (inactive); with MDA-MB-435, 9.48 µM (inactive); in the assay on Malme-3M, 17.3 µM (inactive); with NCI-H522 it was 14.8 µM (inactive); in the assay on NCI/ADR-RES, 20.8 µM (inactive); with OVCAR-3, 8.71 µM (inactive). Besides, the GI50 in the assay on OVCAR-5 is 18.7 µM (inactive); with SF-539, 13.2 µM (inactive); with SNB-19 it was 17.5 µM (inactive); in the assay on SNB-75, 12 µM (inactive); in the assay on SW-620 it was 18.2 µM (inactive); in the assay with U-251, 13.8 µM (inactive). In addition, the GI50 in the assay on UACC-257 was 14.5 µM (inactive); in the assay with UACC-62, 11.2 µM (inactive).
For the molecule `CC(=O)Nc1n[n+]([O-])c2cc(C)ccc2[n+]1[O-]`, the GI50 with CAKI-1 is 2.52 µM (inactive); with DU-145, 4.71 µM (inactive); with EKVX it was 4.79 µM (inactive); in the assay on HOP-62, 2.89 µM (inactive); in the assay with HOP-92 it was 1.01 µM (active); with LOX IMVI it was 2.4 µM (inactive). Moreover, the GI50 in the assay with M14 is 2.42 µM (inactive); with MDA-MB-435, 4.72 µM (inactive); in the assay with Malme-3M, 3.18 µM (inactive); with NCI-H522, 2.05 µM (inactive); in the assay with NCI/ADR-RES, 5.79 µM (inactive); in the assay with OVCAR-3 it was 2.4 µM (inactive). Also, the GI50 is 12 µM (inactive) in the assay with OVCAR-5; 1.99 µM (inactive) in the assay on SF-539; 4.98 µM (inactive) in the assay on SNB-19; 2.88 µM (inactive) with SNB-75; 2.41 µM (inactive) with SW-620; 2.92 µM (inactive) in the assay on U-251. For the same molecule, the GI50 was 4.78 µM (inactive) in the assay on UACC-257 and 1.78 µM (inactive) with UACC-62.
For `Clc1nc2c(-c3cccs3)ncnc2n1Cc1ccccc1`, the GI50 with CAKI-1 was 3.08 µM (inactive); in the assay on DU-145, 2.49 µM (inactive); in the assay with EKVX, 21.4 µM (inactive); in the assay on HOP-62, 47.6 µM (inactive); in the assay with HOP-92, 9.44 µM (inactive); in the assay on LOX IMVI, > 86.9 µM (inactive). Moreover, the GI50 with M14 was 66.8 µM (inactive); in the assay on MDA-MB-435, 49.2 µM (inactive); in the assay on Malme-3M, 36.5 µM (inactive); with NCI-H522, 19.4 µM (inactive); with NCI/ADR-RES it was 46.3 µM (inactive); in the assay on OVCAR-3 it was 23 µM (inactive). The GI50 with OVCAR-5 was > 94.2 µM (inactive); with SF-539 it was 40 µM (inactive); in the assay with SNB-19, 27.4 µM (inactive); in the assay with SNB-75 it was 21.3 µM (inactive); with SW-620, > 30.3 µM (inactive); with U-251 it was 38.5 µM (inactive). Further, the results for the GI50 in the assay on UACC-257 and in the assay with UACC-62 were 21.2 µM (inactive) and 72.3 µM (inactive), respectively.
Regarding `CCOC(=O)CC1c2ccc(O)cc2OC(=O)C1c1ccc([N+](=O)[O-])cc1` (stereo not given), the GI50 was 43 µM (inactive) in the assay on CAKI-1; 48.9 µM (inactive) with DU-145; 39.7 µM (inactive) with EKVX; 20.2 µM (inactive) with HOP-62; 20.4 µM (inactive) in the assay with HOP-92; 40.7 µM (inactive) in the assay with LOX IMVI. The GI50 is 21 µM (inactive) with M14; 25 µM (inactive) in the assay with MDA-MB-435; 27.4 µM (inactive) in the assay on Malme-3M; 18.6 µM (inactive) in the assay with NCI-H522; 27 µM (inactive) in the assay with NCI/ADR-RES; 28.8 µM (inactive) with OVCAR-3. The GI50 in the assay on OVCAR-5 is 58.6 µM (inactive); with SF-539, 31 µM (inactive); in the assay with SNB-19, 63.5 µM (inactive); with SNB-75, 23.9 µM (inactive); with SW-620, 65.6 µM (inactive); with U-251 it was 35.8 µM (inactive). Besides, the values for the GI50 in the assay with UACC-257 and with UACC-62 were 28.8 µM (inactive) and 37.2 µM (inactive), respectively.
For `Cc1ccc(NC(Nc2ccc(C)cc2C)=C(/C=C(\Cl)[N+](=O)[O-])[N+](=O)[O-])c(C)c1`, the GI50 was 2.08 µM (inactive) in the assay on CAKI-1; 18.5 µM (inactive) with DU-145; 15.2 µM (inactive) with EKVX; 17.7 µM (inactive) with HOP-62; 1.45 µM (inactive) in the assay with HOP-92; 1.64 µM (inactive) with LOX IMVI. For the same molecule, the GI50 in the assay on M14 is 2.21 µM (inactive); in the assay with MDA-MB-435, 2.87 µM (inactive); with Malme-3M, 3.09 µM (inactive); with NCI-H522 it was 2.37 µM (inactive); in the assay on NCI/ADR-RES it was 17.1 µM (inactive); in the assay with OVCAR-3 it was 2.72 µM (inactive). The GI50 with OVCAR-5 is 4.36 µM (inactive); in the assay on SF-539 it was 8.85 µM (inactive); in the assay with SNB-19 it was 12.9 µM (inactive); in the assay on SNB-75, 1.11 µM (active); with SW-620, 1.91 µM (inactive); with U-251, 11.5 µM (inactive). The results for the GI50 in the assay with UACC-257 and with UACC-62 were 4.81 µM (inactive) and 3.3 µM (inactive), respectively.
As to `COc1ccc(C2C(Cl)C(=O)N2NC(=O)c2ccc(N)cc2)cc1OC` (stereo not given), the GI50 with CAKI-1 is 2.92 µM (inactive); with DU-145 it was 16.4 µM (inactive); in the assay with EKVX, 16.5 µM (inactive); in the assay with HOP-62, 15.9 µM (inactive); in the assay with HOP-92 it was 2 µM (inactive); in the assay on LOX IMVI, 1.5 µM (inactive). Further, the GI50 in the assay on M14 is 8.43 µM (inactive); in the assay with MDA-MB-435, 5.87 µM (inactive); in the assay with Malme-3M, 12.5 µM (inactive); in the assay with NCI-H522, 1.98 µM (inactive); with NCI/ADR-RES, 1.97 µM (inactive); in the assay on OVCAR-3 it was 5.85 µM (inactive). The GI50 with OVCAR-5 was 19.1 µM (inactive); with SF-539 it was 7.8 µM (inactive); in the assay on SNB-19 it was 13.9 µM (inactive); in the assay on SNB-75, 15.6 µM (inactive); in the assay on SW-620 it was 3.27 µM (inactive); with U-251, 2.72 µM (inactive). For the same molecule, the GI50 in the assay on UACC-257 is 14.5 µM (inactive); with UACC-62, 7.29 µM (inactive).
In the case of `O=C1NC(O)c2ccccc2O1` (stereo not given), the GI50 in the assay on CAKI-1, in the assay with DU-145, in the assay on EKVX, with HOP-62, in the assay on HOP-92 and in the assay with LOX IMVI was > 100 µM (inactive) throughout. Further, the GI50 in the assay with M14, in the assay on MDA-MB-435, in the assay on Malme-3M, in the assay on NCI-H522, with NCI/ADR-RES and in the assay on OVCAR-3 was > 100 µM (inactive) each time. Moreover, the GI50 with OVCAR-5, with SF-539, with SNB-19, in the assay with SNB-75, in the assay on SW-620 and with U-251 was > 100 µM (inactive) in each case. Further, the GI50 with UACC-257 and in the assay on UACC-62 was > 100 µM (inactive) throughout.
As for `COc1ccc2c(c1)/c(=C/C#N)c1c3ccccc3[n+](C)n21`, the GI50 with CAKI-1 is 16.1 µM (inactive); in the assay on DU-145, 1.71 µM (inactive); with EKVX it was 2.69 µM (inactive); with HOP-62, 5.73 µM (inactive); in the assay with HOP-92, 1.16 µM (inactive); in the assay with LOX IMVI, 5.97 µM (inactive). Also, the GI50 is 6.87 µM (inactive) in the assay with M14; 6.87 µM (inactive) in the assay on MDA-MB-435; 5.21 µM (inactive) with Malme-3M; 4.33 µM (inactive) in the assay on NCI-H522; 18.4 µM (inactive) with NCI/ADR-RES; 1.34 µM (inactive) in the assay on OVCAR-3. Besides, the GI50 is 8.63 µM (inactive) in the assay on OVCAR-5; 0.767 µM (active) with SF-539; 7.16 µM (inactive) in the assay with SNB-19; 3.7 µM (inactive) with SNB-75; 4.13 µM (inactive) in the assay with SW-620; 2.75 µM (inactive) in the assay on U-251. For the same molecule, the GI50 with UACC-257 is 6.14 µM (inactive); with UACC-62, 13.6 µM (inactive).
For the molecule `COC(=O)C(CNC(=O)/C=C/c1ccc(OC)c(OC)c1)NC(=O)/C=C/c1ccc(OC)c(OC)c1` (stereo not given), the GI50 in the assay with CAKI-1, with DU-145, in the assay on EKVX, in the assay on HOP-62, in the assay on HOP-92 and with LOX IMVI was > 100 µM (inactive) throughout. Further, the GI50 in the assay with M14 is > 100 µM (inactive); with MDA-MB-435 it was > 100 µM (inactive); in the assay on Malme-3M, 92.3 µM (inactive); in the assay with NCI-H522 it was > 100 µM (inactive); with NCI/ADR-RES, > 100 µM (inactive); with OVCAR-3, 66.5 µM (inactive). Further, the GI50 in the assay on OVCAR-5 was > 100 µM (inactive); with SF-539 it was > 100 µM (inactive); in the assay on SNB-19, > 100 µM (inactive); in the assay with SNB-75, 90.6 µM (inactive); with SW-620, > 100 µM (inactive); with U-251 it was > 100 µM (inactive). Moreover, the GI50 with UACC-257 and with UACC-62 was > 100 µM (inactive) each time.
